Source: patent US10378046B2, “Method of targeting mismatched DNA using d8 square planar metal complexes” (The University of Hong Kong, priority 2015, dated 2019)

Legend:
Format in all cases: binding
[1] = test system: CC mismatched DNA; experiment: Isothermal titration calorimetry with CC mismatched DNA; settings: 0.1 mM complex titrated by 0.75 mM DNA; 50 mM NaCl, 2 mM Tris, pH 7.5
Source text: ITC measures the heat absorbed or generated during a bi-molecular binding event. During ITC experiment of titrating known concentration of titrant (DNA molecules) to known quantity of titrate (Pt(II) complexes), Pt(II) complexes would bind onto the DNA molecules, generating incremental heat changes (in the unit of microcalories (μcal)). Through accurate measurement of the heat changes in each step of the titration and fitting the data by using a non-liner least square method, the best-fitted graph would yield the binding constant (K) of the bi-molecular interaction.
To determine the binding constant of Pt(II) complexes with CC mismatched DNA, 0.1 mM of Pt(II) complex in an aqueous buffer solution (50 mM NaCl, 2 mM Tris, pH 7.5) was titrated by 0.75 mM of DNA. Heat released from each step of titration had been recorded.

[2] = test system: matched DNA; experiment: Isothermal titration calorimetry with matched DNA; settings: 0.1 mM complex titrated by 0.75 mM DNA; 50 mM NaCl, 2 mM Tris, pH 7.5
[3] = test system: CC mismatched DNA; experiment: Emission enhancement of complexes upon titration with CC mismatched DNA; settings: complex 5 μM, DNA 10 μM; for increase in emission intensity in the presence of CC mismatched DNA: aqueous buffer 50 mM NaCl, 2 mM Tris, pH 7.5; for ratio of emission enhancement by CC mismatched DNA to that by matched DNA (ΔIcc/ΔImat): aqueous buffer pH 7.5
Procedure: (§1) FIGS. 1A and 1B are graphs showing the emission spectra of complex 5 (5 μM) in an aqueous buffer solution (50 mM NaCl, 2 mM Tris, pH 7.5) after binding to different concentrations of CC mismatched DNA (left) and well-matched DNA (right).
(§2) FIG. 4 is a graph showing the emission enhancement of different complexes (5 μM) towards CC mismatched DNA and matched DNA (10 μM). FIG. 5 is a graph showing the difference in emission enhancement between CC mismatched DNA and matched DNA by different complexes.

[4] = test system: matched DNA; experiment: Emission enhancement of complexes upon titration with well-matched DNA; settings: complex 5 μM, DNA 10 μM; aqueous buffer 50 mM NaCl, 2 mM Tris, pH 7.5
Procedure: as §1, §2
Upon addition of CC mismatch DNA, a growth of the emission band was observed, and a 27-fold increase in emission intensity was found when the concentration of CC mismatched DNA was twice as much as that of the concentration of complex 5 (FIGS. 1A and 1B). It is noteworthy that the emission enhancement of complex 5 towards CC mismatched DNA was around 7-fold more than that toward matched DNA (FIG. 2).

| Compound | increase in emission intensity in the presence of CC mismatched DNA [3] | ratio of emission enhancement by CC mismatched DNA to that by matched DNA (ΔIcc/ΔImat) [3] | increase in emission intensity in the presence of matched DNA [4] | other results |
| --- | --- | --- | --- | --- |
| CN1C=CN(C)[CH]1[Pt]12[c]3ccccc3-c3cccc([n+]31)-c1cccc[n+]12 (centres unmarked) [Complex 1] | – | – | – | difference in heat change between titration with CC mismatched DNA and matched DNA (ITC) [1]: no distinguishable difference in heat change |
| CCCCN1C=CN(Cc2ccccc2)[CH]1[Pt]12[c]3ccccc3-c3cccc([n+]31)-c1cccc[n+]12 (centres unmarked) [Complex 5] | 27 fold | – | – | heat change in the binding of matched DNA (ITC) [2]: no significant heat change; binding constant (K) with CC mismatched DNA by ITC [1]: 1.18×10^4 |
| C1=CN(Cc2ccccc2)[CH]([Pt]23[c]4ccccc4-c4cccc([n+]42)-c2cccc[n+]23)N1Cc1ccccc1 (centres unmarked) [Complex 8] | small emission enhancements | smaller ratios of emission enhancement by CC mismatched DNA to the enhancement by matched DNA than complex 5 | small emission enhancements | – |
| OCCN1C=CN(Cc2ccccc2)[CH]1[Pt]12[c]3ccccc3-c3cccc([n+]31)-c1cccc[n+]12 (centres unmarked) [Complex 9] | – | smaller ratios of emission enhancement by CC mismatched DNA to the enhancement by matched DNA than complex 5 | strong emission enhancement | – |
| CCCCN1C=CN(Cc2ccc3ccccc3c2)[CH]1[Pt]12[c]3ccccc3-c3cccc([n+]31)-c1cccc[n+]12 (centres unmarked) [Complex 11] | no emission enhancement | – | no emission enhancement | – |
| CCCCN1C=CN(Cc2ccccc2)[CH]1[Pt]12[c]3ccccc3-c3cc(-c4ccccc4)cc([n+]31)-c1cccc[n+]12 (centres unmarked) [Complex 16] | no emission enhancement | – | no emission enhancement | – |
| C1=CN(CN2C=CN(Cc3ccccc3)[CH]2[Pt]23[c]4ccccc4-c4cccc([n+]42)-c2cccc[n+]23)[CH]([Pt]23[c]4ccccc4-c4cccc([n+]42)-c2cccc[n+]23)N1Cc1ccccc1 (centres unmarked) [Complex 21] | – | largest ΔIcc/ΔImat value | – | – |
